In patent publication US10925963B2, “Combination artemisinin and chemiluminescent photodynamic therapy and uses therefor” (Washington University, priority 2015, dated 2021):

What was measured:
[1] = system: asynchronous 3D7 parasites; assay: Parasite growth of ALA-treated cultures with daily white-light exposure; assay type: cell-based, Plasmodium falciparum
Procedure: Parasite growth was monitored by diluting asynchronous parasites to 0.5% parasitemia and allowing culture expansion with daily or twice daily media changes. […] To assess the light sensitivity of ALA-treated parasites, asynchronous parasites were cultured in 200-500 μM ALA in the absence or presence of 50 μM succinylacetone and subjected to 2-5 minute daily exposures to broad wavelength white light on an overhead projector. Daily parasitemia measurements were plotted as a function of time and fit to an exponential growth equation using Graph Pad Prism 5.0 (Graph Pad Software, Inc., La Jolla, Calif.).
To test the effects of these changes on bulk parasite culture, the present inventors monitored the growth of untreated versus ALA-treated parasites over several days with 2-minute daily exposures to broad-wavelength white light on an overhead projector light box. FIG. 4 depicts growth of asynchronous 3D7 parasites in the presence or absence of 200 μM ALA and 50 μM succinylacetone (SA), with 2-minute exposures to white light on an overhead projector on days 0-2. Parasitemia (percentage of total erythrocytes infected with parasites) as a function of time was fit with an exponential growth equation.

uninfected erythrocytes = assay: Fluorescence microscopy of uninfected erythrocytes incubated in ALA; assay type: cell-based; conditions: 500 μM ALA
Procedure: (§1) Images of live or fixed parasites were acquired on an Axio Imager.M1 epifluorescence microscope (Carl Zeiss Microimaging, Inc.) equipped with a Hamamatsu ORCA-ER digital CCD camera and running Axiovision 4.8 software, as described previously (Sigala, P. A., et al., J. Biol. Chem. 287, 37793-37807, 2012). Live parasite nuclei were stained with 5 μM Hoechst 33342 added immediately prior to image acquisition. For photodynamic imaging studies, parasites were cultured in 200-500 μM ALA in the absence or presence of 50 μM succinylacetone for 6-12 hours prior to visualization. Hemozoin movement in parasite digestive vacuoles were imaged by acquiring 10-20 sequential frames at 1 second intervals on the bright-field channel. Images were cropped and superimposed in Adobe Photoshop and exported as movie files with a 0.1 second frame delay. Immunofluorescence images were acquired by fixing and staining parasites as previously described (Tonkin, C. J., et al., Mol. Biochem. Parasitol 137, 13-21, 2004; Ponpuak, M., et al., Mol. Microbiol. 63, 314-334, 2007). Electron microscopy images were obtained as previously described (Beck., J. R., et al., Nature 511, 592-595, 2014). […]
FIG. 7A depicts Bright field and fluorescence (Zeiss filter set 43 HE) images of uninfected erythrocytes incubated in 500 μM ALA before or after electroporation.

[2] = system: hemozoin crystals in the parasite digestive vacuole; assay: Hemozoin dynamics in the digestive vacuole after light exposure; assay type: cell-based, Plasmodium falciparum; conditions: 200 μM ALA-treated parasites; fluorescence image acquisition overlapping PPIX excitation
Procedure: as §1, with “delay.” for “delay. Immunofluorescence images were acquired by fixing and staining parasites as previously described (Tonkin, C. J., et al., Mol. Biochem. Parasitol 137, 13-21, 2004; Ponpuak, M., et al., Mol. Microbiol. 63, 314-334, 2007). Electron microscopy images were obtained as previously described (Beck., J. R., et al., Nature 511, 592-595, 2014).”
The cytotoxic effects of light-activating PPIX were readily apparent by monitoring the motion of hemozoin crystals that dynamically tumble within the digestive vacuole of individual parasites. […] FIG. 3A depicts bright field and fluorescence microscopy images of untreated and 200 μM ALA-treated parasites. Fluorescence images were acquired with a Zeiss filter set 43 HE (excitation 537-562 nm, emission 570-640 nm). […]

[3] = system: Plasmodium-infected erythrocytes; assay: Fluorescence microscopy of PPIX accumulation in parasite-infected erythrocytes; assay type: cell-based, Plasmodium falciparum; conditions: parasites grown in 200 μM ALA; epifluorescence microscope
Procedure: as §1, with “delay.” for “delay. Immunofluorescence images were acquired by fixing and staining parasites as previously described (Tonkin, C. J., et al., Mol. Biochem. Parasitol 137, 13-21, 2004; Ponpuak, M., et al., Mol. Microbiol. 63, 314-334, 2007). Electron microscopy images were obtained as previously described (Beck., J. R., et al., Nature 511, 592-595, 2014).”
The present inventors investigated whether ALA treatment could serve as a probe of heme biosynthesis activity in Plasmodium-infected erythrocytes by enabling direct visualization of PPIX production and the cellular consequences of light activation. Untreated parasites imaged on an epifluorescence microscope display only background auto-fluorescence from hemozoin crystals in the parasite digestive vacuole (FIG. 2). […]

[4] = system: heme biosynthesis enzymes in the erythrocyte cytoplasm; assay: LC-MS/MS detection of 13C-labelled PPIX and CPP from 13C-ALA in erythrocyte lysate supernatants; assay type: biochemical; conditions: 50 μM succinylacetone; 200 μM 5-[13C4]-ALA; saponin lysate supernatant, overnight 37° C.
Procedure: Parasites were cultured in 200 μM 5-[^13C4]-ALA for 12-24 hours, harvested by centrifugation, lysed in 0.05% cold saponin, washed in PBS, and extracted with DMSO. Deuteroporphyrin was added as an internal standard, and extracts were analyzed for ^13C-labeled heme, PPIX, and CPPIII using a previously published liquid chromatography-multiple reaction monitoring tandem mass spectrometry assay (Ke, H. et al., J. Biol. Chem. 289, 34827-34837, 2014).
To assess the heme biosynthesis capacity of the erythrocyte cytoplasm, 500 μl packed red blood cells (described previously; Sigala, P. A., et al., J. Biol. Chem. 287, 37793-37807, 2012) were lysed in 20 ml of 0.04% saponin/PBS (0.2 μM filtered) and centrifuged at 25,000×g for 60 minutes to pellet unlysed cells and any organelles. The superficial 15 ml of the lysate supernatant was removed and 0.2 μM filtered, supplemented with 200 μM 5-[^13C4]-ALA in the absence or presence of 50 μM succinylacetone, incubated overnight at 37° C., and analyzed by tandem mass spectrometry as described above.
In these investigations, red porphyrin fluorescence in ALA-treated intraerythrocytic parasites was not limited to the parasitophorous vacuole but was detectable throughout the erythrocyte cytoplasm (FIG. 3A), as expected for host enzyme activity in this compartment and production of PPIX. […]

[5] = system: 3D7 (drug sensitive) parasites; assay: Chemiluminescence-based photodynamic therapy (CL-PDT) parasite growth; assay type: cell-based, Plasmodium falciparum; conditions: 50 μM succinylacetone
Procedure: Parasitemia was measured daily as indicated above.
The present inventors tested whether intraerythrocytic parasites might be uniquely susceptible to chemiluminescence-based photodynamic therapy (CL-PDT) (FIG. 9A). Artemisinin and its derivatives are current frontline drugs used for treatment of malaria, usually in combination with a partner drug. To test the efficacy of an artemisinin CL-PDT strategy for treatment of blood-stage malaria, we incubated intraerythrocytic parasites in 50-100 μM ALA with or without luminol and sub-therapeutic doses (≤10% of EC50) of dihyroartemisinin (DHA), with twice-daily media changes.

Structure (SMILES) | growth of cultures in the presence of light ([1]; 200 μM ALA, 2-minute daily exposures to white light on days 0-2) | blood smear examination of light-exposed cultures ([1]; ALA-treated cultures, 2-minute daily white light) | photosensitivity of growth in ALA after apicoplast disruption ([1]; IPP/doxycycline-treated 3D7 parasites, 200 μM ALA, 2-minute light exposures) | photosensitivity of clonal growth in ALA ([1]; ΔPBGD and ΔCPO 3D7 parasite lines, 200 μM ALA, 2-minute light exposures days 0-2) | porphyrin fluorescence of uninfected erythrocytes (uninfected erythrocytes; after electroporation) | porphyrin fluorescence of uninfected erythrocytes (uninfected erythrocytes; without electroporation) | hemozoin dynamics after light [2] | porphyrin (PPIX) fluorescence of infected erythrocytes [3] | rescue of photosensitivity of parasite growth in ALA ([1]; 50 μM succinylacetone with 200 μM ALA, 2-minute light exposures) | formation of 13C-labelled PPIX and coproporphyrin III from 13C-ALA [4] | rescue of cytotoxicity of the ALA/luminol/DHA combination [5]
NCC(=O)CCC(=O)O [ALA, 5-aminolevulinic acid] | strongly attenuated by light | predominantly contained pyknotic parasites | remained fully photosensitive | remained fully photosensitive | robust intracellular porphyrin fluorescence | no detectable porphyrin fluorescence | rapidly ablated by light | bright red fluorescence | – | – | –
CC(=O)CC(=O)CCC(=O)O [succinylacetone] | – | – | – | – | – | – | – | – | fully rescued | fully blocked | could be rescued
